Experimental data reported in the supplement of paper PMC10307832.

Experiments:
Test in all cases: relative viability (nuclei count vs DMSO), 5 days (fraction); higher = more cells survive
Zebularine + OSI-027 = compound: O=c1ncccn1[C@@H]1O[C@H](CO)[C@@H](O)[C@H]1O [Zebularine] + COc1cccc2cc(-c3nc([C@H]4CC[C@H](C(=O)O)CC4)n4ncnc(N)c34)[nH]c12 [OSI-027] (partner 0.5 µM)
How it was run: (§1)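 The day after seeding in 1536-well plates, lung cancer cell lines were treated by pin tool with a single drug, or with a fixed anchor-drug dose together with five library-drug doses (not always all listed) in √10 steps. After 5 days, a combined fix-and-stain solution (final 0.05% Triton X-100, 1% formaldehyde, 1 ug/ml Hoechst) was added. Nuclei counted on 4× images gave relative viability as treated counts over vehicle counts, reported as the median of duplicate plates.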

BI-D1870 + Luminespib = compound: CC(C)CCN1c2nc(Nc3cc(F)c(O)c(F)c3)ncc2N(C)C(=O)C1C [BI-D1870] + CCNC(=O)c1noc(-c2cc(C(C)C)c(O)cc2O)c1-c1ccc(CN2CCOCC2)cc1 [Luminespib] (partner 0.01 µM)
How it was run: as §1

BI-D1870 + Pictilisib = compound: CC(C)CCN1c2nc(Nc3cc(F)c(O)c(F)c3)ncc2N(C)C(=O)C1C [BI-D1870] + CS(=O)(=O)N1CCN(Cc2cc3nc(-c4cccc5[nH]ncc45)nc(N4CCOCC4)c3s2)CC1 [Pictilisib] (partner 1 µM)
How it was run: as §1

Zebularine + AZD7762 = compound: O=c1ncccn1[C@@H]1O[C@H](CO)[C@@H](O)[C@H]1O [Zebularine] + NC(=O)Nc1cc(-c2cccc(F)c2)sc1C(=O)N[C@H]1CCCNC1 [AZD7762] (partner 0.2 µM)
How it was run: as §1

Cell Line	relative viability (Zebularine + OSI-027; first compound 1 µM)	relative viability (Zebularine + OSI-027; first compound 3.162 µM)	relative viability (Zebularine + OSI-027; first compound 10 µM)	relative viability (Zebularine + OSI-027; first compound 31.62 µM)	relative viability (Zebularine + OSI-027; first compound 100 µM)	relative viability (BI-D1870 + Luminespib; first compound 0.04 µM)	relative viability (BI-D1870 + Luminespib; first compound 0.1265 µM)	relative viability (BI-D1870 + Luminespib; first compound 0.4 µM)	relative viability (BI-D1870 + Luminespib; first compound 1.265 µM)	relative viability (BI-D1870 + Luminespib; first compound 4 µM)	relative viability (BI-D1870 + Pictilisib; first compound 0.04 µM)	relative viability (BI-D1870 + Pictilisib; first compound 0.1265 µM)	relative viability (BI-D1870 + Pictilisib; first compound 0.4 µM)	relative viability (BI-D1870 + Pictilisib; first compound 1.265 µM)	relative viability (BI-D1870 + Pictilisib; first compound 4 µM)	relative viability (Zebularine + AZD7762; first compound 1 µM)	relative viability (Zebularine + AZD7762; first compound 3.162 µM)	relative viability (Zebularine + AZD7762; first compound 10 µM)	relative viability (Zebularine + AZD7762; first compound 31.62 µM)	relative viability (Zebularine + AZD7762; first compound 100 µM)
HCC-15	0.85	0.587	0.457	0.537	0.27	0.314	0.205	0.332	0.34	0.344	0.792	0.661	0.674	0.79	0.509	1.24	1.41	0.883	1.17	0.984
HCC-44	0.627	0.462	0.435	0.398	0.364	1.46	1	0.986	1.26	0.695	0.651	0.498	0.617	0.768	0.443	1.11	1.03	1.15	1.14	1.01
HCC-827	1.06	0.779	0.675	0.609	0.366	0.629	0.672	0.681	0.736	0.714	0.96	1.05	1.08	1.14	0.91	0.221	0.206	0.197	0.197	0.179
HOP-62	0.945	0.745	0.493	0.465	0.319	0.989	0.929	0.88	0.95	0.866	0.606	0.745	0.726	0.554	0.669	0.649	0.658	0.303	0.307	0.247
LC-2-ad	0.858	0.559	0.546	0.573	0.529	1.2	0.953	0.943	0.911	0.769	0.536	0.456	0.498	0.0168	0.474	0.907	0.888	0.525	0.812	0.357
LCLC-97TM1	0.572	0.533	0.258	0.198	0.213	0.892	0.775	0.769	0.918	0.846	0.183	0.151	0.175	0.21	0.153	0.127	0.216	0.142	0.134	0.13
LCLC-103H	0.474	0.434	0.321	0.414	0.462	0.989	0.753	0.888	1.07	0.934	0.631	0.573	0.563	0.573	0.494	0.8	0.798	0.579	0.802	0.689
LK-2	0.187	0.181	0.195	0.202	0.162	0.204	0.19	0.185	0.169	0.212	0.557	0.484	0.535	0.619	0.533	0.492	0.382	0.49	0.23	0.16
LOU-NH91	0.746	0.7	0.66	0.699	0.571	0.366	0.33	0.315	0.351	0.264	0.413	0.503	0.504	0.587	0.44	0.522	0.751	0.568	0.743	0.627
LU99A	0.314	0.278	0.284	0.294	0.216	0.263	0.223	0.276	0.258	0.229	0.368	0.253	0.319	0.305	0.358	0.348	0.28	0.267	0.24	0.115
LXF-289	0.827	0.69	0.626	0.564	0.329	0.809	0.607	0.674	0.74	0.533	0.833	0.763	0.798	0.745	0.665	1.07	1.16	1.11	0.699	0.281
NCI-H23	0.674	0.55	0.368	0.628	0.518	0.237	0.222	0.232	0.217	0.24	0.625	0.445	0.433	0.421	0.26	0.3	0.375	–	0.23	0.254
NCI-H322M	0.524	0.531	0.47	0.5	0.521	0.956	0.84	0.884	0.88	0.774	0.579	0.526	0.411	0.526	0.475	0.555	0.606	0.572	0.522	0.528
NCI-H358	0.862	0.474	0.378	0.286	0.177	0.441	0.158	0.256	0.313	0.319	0.38	0.233	0.338	0.365	0.322	0.591	0.386	0.484	0.451	0.333
NCI-H441	0.817	0.595	0.401	0.25	0.234	0.474	0.267	0.359	0.394	0.412	0.498	0.374	0.518	0.466	0.492	1.37	1.27	0.536	0.418	0.369
NCI-H460	0.971	0.707	0.336	0.18	0.0887	0.0324	0.0316	0.0261	0.0295	0.0315	0.437	0.364	0.31	0.391	0.33	0.781	0.716	0.294	0.434	0.126
